# Reference: patent US9028845B2, “Chimeric immunomodulatory compounds and methods of using the same-IV” (Dynavax Technologies Corporation, priority 2001, dated 2015)
# “Also recorded” adds a separate entry of the source.
# System: human PBMCs
# Test: Human PBMC cytokine response assay (IFN-γ and IFN-α in cell-free medium by ELISA), with or without cPLGA;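 for IFN-α (pg/ml) mean: 20 µg/mL compound for 24 hours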;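 for IFN-γ (pg/ml) mean: 20 µg/mL compound for 24 hours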
# Format: cell-based
# Settings: for immunomodulatory activity (IFN-γ / IFN-α secretion), in words: used alone (no cPLGA); for IFN-a (pg/ml) mean / IFN-g (pg/ml) mean: mean of donors 28185-28188; for IFN-a (pg/ml) ×2: mean ×2; for IFN-g (pg/ml) ×4: mean ×4; for IFN-α induction, in words: used alone; for IFN-a mean / IFN-g mean: mean of donors 28250-28253; for IFN-γ (pg/ml) 28065: donor 28065 (high background), 1000 = outside assay limits; for IFN-α (pg/ml) 28065: donor 28065; for IFN-α (pg/ml) 28066 / IFN-γ (pg/ml) 28066: donor 28066; for IFN-α (pg/ml) 28067 / IFN-γ (pg/ml) 28067: donor 28067; for IFN-α (pg/ml) 28068 / IFN-γ (pg/ml) 28068: donor 28068
# [1] = mean of donors 110, 112, 119, 120, Table 14
# [2] = Table 24, mean of donors 28234-28237
# [3] = Table 25, donor 28250, polynucleotides/spacers at amounts equivalent to the CIC, spacers alone 9 uM
# [4] = 20 ug/ml, 24 h, + PLGA = premixed with 100 μg/ml cPLGA
# [5] = mean of donors 28065-28068, 20 ug/ml, 24 h, + PLGA = premixed with 100 μg/ml cPLGA
# [6] = mean of Donors 3-4, 20 μg/ml, 24 h
# [7] = mean of Donors 9-12, 20 μg/ml, 24 h
substance,measurement,setting,value
5′-TCGTCGA-3′-HEG-5′-TCGTCGA-3′ [Compound C-39],IFN-α,"Table 10, donor 28042",31 pg/mL
same,IFN-γ,"Table 10, donor 28042",343 pg/mL
same,IFN-α,"Table 10, donor 28043",187 pg/mL
same,IFN-γ,"Table 10, donor 28043",488 pg/mL
same,IFN-α,"Table 10, donor 28044",46 pg/mL
same,IFN-γ,"Table 10, donor 28044",281 pg/mL
same,IFN-α,"Table 10, donor 28045",36 pg/mL
same,IFN-γ,"Table 10, donor 28045",137 pg/mL
same,IFN-α mean,"Table 10, mean of donors",75 pg/mL
same,IFN-γ mean,"Table 10, mean of donors",312 pg/mL
same,IFN-α,"donor 110, Table 14",674 pg/mL
same,IFN-γ,"donor 110, Table 14",604 pg/mL
same,IFN-α,"donor 112, Table 14",26 pg/mL
same,IFN-γ,"donor 112, Table 14",116 pg/mL
same,IFN-α,"donor 119, Table 14",444 pg/mL
same,IFN-γ,"donor 119, Table 14",108 pg/mL
same,IFN-α,"donor 120, Table 14",250 pg/mL
same,IFN-γ,"donor 120, Table 14",32 pg/mL
same,"activity when formulated with cPLGA, in words",,significant activity when formulated with cPLGA
same,IFN-α (pg/ml) mean,[1],349 pg/mL
same,IFN-γ (pg/ml) mean,[1],215 pg/mL
same,"immunomodulatory activity (IFN-γ / IFN-α secretion), in words",,active when used alone
(5′-TCGTCGA-3′-HEG)2-glycerol-HEG-5′-AACGTTC-3′-HEG-5′-TCGA-3′ [Compound C-97],IFN-α,"Table 24, donor 28234",16 pg/mL
same,IFN-γ,"Table 24, donor 28234",10 pg/mL
same,IFN-α,"Table 24, donor 28235",16 pg/mL
same,IFN-γ,"Table 24, donor 28235",119 pg/mL
same,IFN-α,"Table 24, donor 28236",140 pg/mL
same,IFN-γ,"Table 24, donor 28236",269 pg/mL
same,IFN-α,"Table 24, donor 28237",16 pg/mL
same,IFN-γ,"Table 24, donor 28237",980 pg/mL
same,IFN-α mean,[2],47 pg/mL
same,IFN-γ mean,[2],345 pg/mL
same,IFN-a,"donor 28185, Table 15",307 pg/mL
same,IFN-g,"donor 28185, Table 15",259 pg/mL
same,IFN-a,"donor 28186, Table 15",71 pg/mL
same,IFN-g,"donor 28186, Table 15",16 pg/mL
same,IFN-a,"donor 28187, Table 15",4 pg/mL
same,IFN-g,"donor 28187, Table 15",125 pg/mL
same,IFN-a,"donor 28188, Table 15",2 pg/mL
same,IFN-g,"donor 28188, Table 15",5 pg/mL
same,IFN-a (pg/ml) mean,Table 15,96 pg/mL
same,IFN-g (pg/ml) mean,Table 15,101 pg/mL
same,IFN-a (pg/ml) ×2,Table 15,192 pg/mL
same,IFN-g (pg/ml) ×4,Table 15,405 pg/mL
same,"IFN-α induction, in words",,reduction of IFN-α induction
5′-TCGTCGA-3′-(HEG)6-5′-TCGTCGA-3′ (phosphodiester linkages) [Compound C-36],"activity when formulated with cPLGA, in words",,significantly more active when formulated with cPLGA
same,"immunomodulatory activity (IFN-γ / IFN-α secretion), in words",,inactive as CICs alone
5′-TCGAGAT-3′-HEG-5′-TCGAGAT-3′-HEG-5′-TCGAGAT-3′ [Compound C-45],IFN-α,"Table 10, donor 28042",62 pg/mL
same,IFN-γ,"Table 10, donor 28042",590 pg/mL
same,IFN-α,"Table 10, donor 28043",123 pg/mL
same,IFN-γ,"Table 10, donor 28043",1466 pg/mL
same,IFN-α,"Table 10, donor 28044",152 pg/mL
same,IFN-γ,"Table 10, donor 28044",984 pg/mL
same,IFN-α,"Table 10, donor 28045",14 pg/mL
same,IFN-γ,"Table 10, donor 28045",253 pg/mL
same,IFN-α mean,"Table 10, mean of donors",88 pg/mL
same,IFN-γ mean,"Table 10, mean of donors",823 pg/mL
same,IFN-a,"Table 25, donor 28250",16 pg/mL
same,IFN-g,[3],107 pg/mL
same,IFN-a,"Table 25, donor 28251",109 pg/mL
same,IFN-g,"Table 25, donor 28251",26 pg/mL
same,IFN-a,"Table 25, donor 28252",55 pg/mL
same,IFN-g,"Table 25, donor 28252",95 pg/mL
same,IFN-a,"Table 25, donor 28253",382 pg/mL
same,IFN-g,"Table 25, donor 28253",8 pg/mL
same,IFN-a mean,Table 25,140 pg/mL
same,IFN-g mean,Table 25,59 pg/mL
same,IFN-α,"donor 110, Table 14",446 pg/mL
same,IFN-γ,"donor 110, Table 14",880 pg/mL
same,IFN-α,"donor 112, Table 14",130 pg/mL
same,IFN-γ,"donor 112, Table 14",192 pg/mL
same,IFN-α,"donor 119, Table 14",1074 pg/mL
same,IFN-γ,"donor 119, Table 14",52 pg/mL
same,IFN-α,"donor 120, Table 14",428 pg/mL
same,IFN-γ,"donor 120, Table 14",36 pg/mL
same,IFN-α (pg/ml) mean,[1],520 pg/mL
same,IFN-γ (pg/ml) mean,[1],290 pg/mL
same,"IFN-α induction, in words",,generated more IFN-α than CICs containing a 5′-TCGT-3′
5′-AGATGAT-3′-HEG-5′-ACGTTCG-3′-HEG-5′-TCGTCGA-3′ [Compound C-60],IFN-α,"Table 13, donor 28156",5 pg/mL
same,IFN-γ,"Table 13, donor 28156",304 pg/mL
same,IFN-α,"Table 13, donor 28157",22 pg/mL
same,IFN-γ,"Table 13, donor 28157",209 pg/mL
same,IFN-α,"Table 13, donor 28158",3 pg/mL
same,IFN-γ,"Table 13, donor 28158",26 pg/mL
same,IFN-α,"Table 13, donor 28159",1 pg/mL
same,IFN-γ,"Table 13, donor 28159",38 pg/mL
same,IFN-α mean,"Table 13, mean of donors",8 pg/mL
same,IFN-γ mean,"Table 13, mean of donors",144 pg/mL
(5′-TCGTCGA-3′)2-glycerol-5′-AACGTTC-3′ [Compound C-27],IFN-γ (pg/ml) 28065,[4],475 pg/mL
same,IFN-α (pg/ml) 28065,[4],3 pg/mL
same,IFN-α (pg/ml) 28066,[4],0 pg/mL
same,IFN-γ (pg/ml) 28066,[4],3 pg/mL
same,IFN-α (pg/ml) 28067,[4],24 pg/mL
same,IFN-γ (pg/ml) 28067,[4],24 pg/mL
same,IFN-α (pg/ml) 28068,[4],16 pg/mL
same,IFN-γ (pg/ml) 28068,[4],226 pg/mL
same,IFN-a,"donor 28185, Table 15",4 pg/mL
same,IFN-g,"donor 28185, Table 15",49 pg/mL
same,IFN-a,"donor 28186, Table 15",4 pg/mL
same,IFN-g,"donor 28186, Table 15",3 pg/mL
same,IFN-a,"donor 28187, Table 15",39 pg/mL
same,IFN-g,"donor 28187, Table 15",21 pg/mL
same,IFN-a,"donor 28188, Table 15",4 pg/mL
same,IFN-g,"donor 28188, Table 15",3 pg/mL
same,IFN-α (pg/ml) mean,[5],11 pg/mL
same,IFN-γ (pg/ml) mean,[5],182 pg/mL
same,IFN-a (pg/ml) mean,Table 15,13 pg/mL
same,IFN-g (pg/ml) mean,Table 15,19 pg/mL
same,IFN-a (pg/ml) ×2,Table 15,25 pg/mL
same,IFN-g (pg/ml) ×4,Table 15,75 pg/mL
5′-TCGTCGT-3′-HEG-5′-TCGTCGT-3′-HEG-5′-TCGTCGT-3′ [Compound C-42],IFN-α,"Table 10, donor 28042",0 pg/mL
same,IFN-γ,"Table 10, donor 28042",198 pg/mL
same,IFN-α,"Table 10, donor 28043",29 pg/mL
same,IFN-γ,"Table 10, donor 28043",1067 pg/mL
same,IFN-α,"Table 10, donor 28044",24 pg/mL
same,IFN-γ,"Table 10, donor 28044",4000 pg/mL
same,IFN-α,"Table 10, donor 28045",0 pg/mL
same,IFN-γ,"Table 10, donor 28045",37 pg/mL
same,IFN-α mean,"Table 10, mean of donors",13 pg/mL
same,IFN-γ mean,"Table 10, mean of donors",1326 pg/mL
same,IFN-α,"donor 110, Table 14",250 pg/mL
same,IFN-γ,"donor 110, Table 14",1508 pg/mL
same,IFN-α,"donor 112, Table 14",26 pg/mL
same,IFN-γ,"donor 112, Table 14",204 pg/mL
same,IFN-α,"donor 119, Table 14",156 pg/mL
same,IFN-γ,"donor 119, Table 14",56 pg/mL
same,IFN-α,"donor 120, Table 14",36 pg/mL
same,IFN-γ,"donor 120, Table 14",56 pg/mL
same,IFN-α (pg/ml) mean,[1],117 pg/mL
same,IFN-γ (pg/ml) mean,[1],456 pg/mL
5′-TCGTCG-3′-HEG-5′-ACGTTCG-3′-HEG-5′-AGATGAT-3′-TEG [Compound C-29],IFN-α,"Table 9, donor 28089",75 pg/mL
same,IFN-γ,"Table 9, donor 28089",63 pg/mL
same,IFN-α,"Table 9, donor 28090",92 pg/mL
same,IFN-γ,"Table 9, donor 28090",50 pg/mL
same,IFN-α,"Table 9, donor 28098",359 pg/mL
same,IFN-γ,"Table 9, donor 28098",150 pg/mL
same,IFN-α,"Table 9, donor 28099",332 pg/mL
same,IFN-γ,"Table 9, donor 28099",177 pg/mL
same,IFN-α mean,"Table 9, mean of donors",214 pg/mL
same,IFN-γ mean,"Table 9, mean of donors",110 pg/mL
"5′-TCGTCG-3′ [Compound P-2, reference compound]",IFN-α (pg/ml) Donor 3,"Donor 3, 20 μg/ml, 24 h",0 pg/mL
same,IFN-γ (pg/ml) Donor 3,"Donor 3, 20 μg/ml, 24 h",0 pg/mL
same,IFN-α (pg/ml) Donor 4,"Donor 4, 20 μg/ml, 24 h",40 pg/mL
same,IFN-γ (pg/ml) Donor 4,"Donor 4, 20 μg/ml, 24 h",4 pg/mL
same,IFN-α Donor 9,"Donor 9, 20 μg/ml, 24 h",0
same,IFN-γ Donor 9,"Donor 9, 20 μg/ml, 24 h",2
same,IFN-α Donor 10,"Donor 10, 20 μg/ml, 24 h",2
same,IFN-γ Donor 10,"Donor 10, 20 μg/ml, 24 h",3
same,IFN-α Donor 11,"Donor 11, 20 μg/ml, 24 h",1
same,IFN-γ Donor 11,"Donor 11, 20 μg/ml, 24 h",1
same,IFN-α Donor 12,"Donor 12, 20 μg/ml, 24 h",4
same,IFN-γ Donor 12,"Donor 12, 20 μg/ml, 24 h",2
same,IFN-a,"Table 25, donor 28250",16 pg/mL
same,IFN-g,[3],7 pg/mL
same,IFN-a,"Table 25, donor 28251",16 pg/mL
same,IFN-g,"Table 25, donor 28251",25 pg/mL
same,IFN-a,"Table 25, donor 28252",25 pg/mL
same,IFN-g,"Table 25, donor 28252",53 pg/mL
same,IFN-a,"Table 25, donor 28253",16 pg/mL
same,IFN-g,"Table 25, donor 28253",1 pg/mL
same,IFN-a mean,Table 25,18 pg/mL
same,IFN-g mean,Table 25,22 pg/mL
same,IFN-γ (pg/ml) 28065,[4],79 pg/mL
same,IFN-α (pg/ml) 28065,[4],0 pg/mL
same,IFN-α (pg/ml) 28066,[4],3 pg/mL
same,IFN-γ (pg/ml) 28066,[4],1 pg/mL
same,IFN-α (pg/ml) 28067,[4],0 pg/mL
same,IFN-γ (pg/ml) 28067,[4],1 pg/mL
same,IFN-α (pg/ml) 28068,[4],0 pg/mL
same,IFN-γ (pg/ml) 28068,[4],0 pg/mL
same,IFN-α (pg/ml) mean,[6],20 pg/mL
same,IFN-γ (pg/ml) mean,[6],2 pg/mL
same,IFN-α mean,[7],2
same,IFN-γ mean,[7],2
same,IFN-α (pg/ml) mean,[5],1 pg/mL
same,IFN-γ (pg/ml) mean,[5],20 pg/mL
same,"immunomodulatory activity (IFN-γ / IFN-α secretion), in words",,did not have immunomodulatory activity; also recorded: had no activity
